Among the data in the COVID Moonshot data (paper PMC7615835) are IC50 values, retold here.

Values joined by “and” are separate entries in the source; they are usually repeats but may differ in a detail not shown here. Equal entries are not always repeated.

By IC50 is commonly meant the concentration at which inhibition is half-maximal. A high value points to lower potency.

In the assay the target is SARS-CoV-2 Main Protease (SARS-CoV-2) (UniProt P0DTD1).
The molecule `CC(C)(C)c1ccc(N(C(=O)c2ccc(=O)[nH]n2)C(C(=O)NCCc2cccc(F)c2)c2cccnc2)cc1` (stereo unspecified) yielded an IC50 above 99.5 µM.

As to `O=[N+]([O-])c1cnc(Sc2nnc(-c3ccc(Cl)cc3)o2)s1`, the IC50 came out at 0.881 µM. Molecule `Cc1cc(C(=O)Nc2cnc3nccn3c2)nn1-c1ccc(F)cc1` registered an IC50 above 99.5 µM. For `O=C(NC1N=Nc2ccccc21)C1CCOc2ccc(Cl)cc21` (stereo unspecified) the value was above 99.5 µM; for `CN1CCN(c2cc(Cl)cc(CC(=O)Nc3cncc4ccccc34)c2)[C@H](c2ccccc2)C1` (stereo in doubt), 1.81 µM; for `Cc1ccc(S(=O)(=O)N2CCN(C(=O)CCl)C[C@H]2C(=O)NCCc2ccccc2)cc1` (stereo in doubt), 11.8 µM. `O=C(CN1CC2(CCN(c3cncc4ccccc34)C2=O)c2cc(Cl)ccc2S1(=O)=O)NCC1CC1` (stereo unspecified) returned an IC50 of 0.203 µM. On to `O=C1CC(NC(=O)C2CCOc3ccc(Cl)cc32)CN1` (stereo unspecified), for which the IC50 was above 99.5 µM.

`Cn1c(=O)[nH]c2cncc(NC(=O)C3CCOc4ccc(Cl)cc43)c21` (stereo unspecified): the IC50 turned out to be 20.7 µM. `CCCCn1nnnc1CNC1CCc2nc(C(C)C)nn2C1` (stereo unspecified) registered an IC50 above 99.5 µM. In the case of `CCC(C)c1ccc(C(NCC(=O)Nc2ccc3[nH]c(=O)[nH]c3c2)c2cccs2)cc1` (stereo unspecified), the IC50 was above 99.5 µM. `O=C(Nc1cncc2ccccc12)C1CCOc2c(OCc3ccccn3)cc(Cl)cc21` (stereo unspecified) came in with an IC50 of 6.43 µM. In turn, `Cn1ncc2cncc(NC(=O)C3CN(S(=O)(=O)CC4(C#N)CC4)Cc4ccc(Cl)cc43)c21` (stereo unspecified) registered a half-inhibitory concentration (IC50) of 2.53 µM. For `Cc1cc(C)n(-c2cc(Cl)cc(CC(=O)Nc3cncc4ccccc34)c2)c(=O)c1CN`, the IC50 was determined as 2.41 µM. Consider `Cc1cccc2ncnc(NC(C)c3ccc4[nH]c(=O)[nH]c4c3)c12` (stereo unspecified), for which the IC50 was above 99.5 µM. The molecule `C=CC(=O)N(c1ccc(C(C)(C)C)cc1)C(C(=O)NCCCSC)c1cccnc1` (stereo unspecified) showed an IC50 of 25.5 µM. Turning to `O=C(Nc1ccccn1)[C@H]1CN(C(=O)CCl)CCN1S(=O)(=O)c1ccsc1` (stereo in doubt), the IC50 is 4.77 µM. The molecule `CCN(CC)S(=O)(=O)c1ccc(S(=O)(=O)N2CCN(S(N)(=O)=O)CC2)cc1` gave an IC50 above 99.5 µM.

As for `CC1(NC(=O)CN2Cc3ccc(Cl)cc3C3(CCN(c4cncc5ccccc45)C3=O)C2)CC1` (stereo unspecified), the IC50 was 0.271 µM. As to `O=C(Nc1ccc(N(C(=O)c2cocn2)C(C(=O)NCCc2cccc(F)c2)c2cccnc2)cc1)NC1CC1` (stereo unspecified), the IC50 was above 99.5 µM. For the molecule `O=C(Cn1nnc2ccccc21)N(Cc1ccsc1)c1ccc(N2CCCCC2)cc1`, the IC50 stood at 6.56 µM. The molecule `O=C(c1cc(=O)[nH]c2ccccc12)N1CCN(c2cccc(C(F)(F)F)c2)CC1` gave an IC50 of 3.8 µM.

In turn, `COc1ccc2c(NC(=O)C3CCOc4ccc(Cl)cc43)noc2c1` (stereo unspecified) returned a concentration for half-maximal inhibition (IC50) of 61.5 µM. This IC50 lies about 16-fold higher than the previous one. `CC1(C(=O)Nc2cncc3cccc(Cl)c23)CNS(=O)(=O)c2ccc(Cl)cc21` (stereo unspecified) had an IC50 of 1.87 µM. Turning to `O=C(Cc1cc(Cl)cc(Nc2ccc(O)cc2[N+](=O)[O-])c1)Nc1cncc2ccccc12`, the IC50 stood at 5.33 µM. Under `Cc1cccc2ncc(NC(=O)Cc3cccc(Cl)c3)n12` stands 5.54 µM; under `O=C(O)CC1(C(=O)Nc2cncc3ccccc23)CCOc2ccc(Cl)cc21` (stereo unspecified), 31.4 µM and > 9.95 µM.

Molecule `CN(C)S(=O)(=O)c1cccc(C(=O)Nc2c(-c3ccccc3)nc3sccn23)c1` gave an IC50 of 0.975 µM. This counts as sub-micromolar.

Molecule `CC1(CS(=O)(=O)N2Cc3ccc(Cl)cc3C(C(=O)Nc3cncc4ccccc34)C2)CC1` (stereo unspecified) came in with an IC50 of 0.098 µM.

As to `Cc1cc(Nc2cc(Cl)cc(CC(=O)Nc3cncc4ccccc34)c2)cnc1Br`, the IC50 worked out at 1.95 µM.

Turning to `O=C1NC[C@@H](C(=O)Nc2cncc3ccccc23)c2cc(Cl)ccc21` (stereo in doubt), the IC50 worked out at 99.3 µM. Turning to `O=C(NCCc1cccc(F)c1)C(c1cccnc1)N(C(=O)c1cnc[nH]1)c1cnc(C2CCC2)nc1` (stereo unspecified), the IC50 was above 99 µM. For `O=C(Cc1cc(Cl)cc(NCc2cc(F)c(F)c(F)c2)c1)Nc1cncc2ccccc12`, the IC50 stood at 3.4 µM. In the case of `CNc1ccc(N(C(=O)Cn2nnc3ccccc32)c2cccc(Cl)c2)cc1`, the IC50 was 5.34 µM. `CC(C)Oc1ccc(N(C(=O)c2cocn2)C(C(=O)NCCc2cccc(F)c2)c2cccnc2)cc1` (stereo unspecified) registered an IC50 of 0.609 µM. In turn, `O=C(Nc1cncc2ccccc12)C1(CNc2c[nH]c(=O)[nH]c2=O)CCOc2cc(Cl)ccc21` (stereo unspecified) came in with an IC50 of 5.36 µM.

The molecule `Cn1cncc1NC(=O)Cc1cccc(Cl)c1` had an IC50 of 93.9 µM.

For the molecule `NS(=O)(=O)CCc1ccccc1CN1CCN(C(=O)CCl)CC1`, the IC50 came out at 2.72 µM. `N#CC1(CS(=O)(=O)N2Cc3ccc(Cl)cc3C(C(=O)Nc3cncc4ccccc34)C2)CCCC1` (stereo unspecified): the IC50 is 0.079 µM and 0.0884 µM. As to `CS(=O)(=O)Nc1ccc2cncc(NC(=O)C3CCS(=O)(=O)c4ccc(Cl)cc43)c2c1` (stereo unspecified), the IC50 was 0.204 µM. Molecule `N#CC1(CS(=O)(=O)N2Cc3ccc(Cl)cc3C(C(=O)Nc3nncn3C3CC3)C2)CC1` (stereo unspecified) registered an IC50 of 55.3 µM. In turn, `O=C(CN1CC(C(=O)Nc2cncc3cc(F)ccc23)c2cc(Cl)ccc2C1=O)NC1CCC1` (stereo unspecified) gave an IC50 of 0.34 µM. `O=C(Nc1cccc2cc[nH]c12)c1cccc2[nH]c(=O)oc12`: the IC50 is above 99.5 µM. Molecule `COc1cc2c(cc1Nc1cc(Cl)cc(CC(=O)Nc3cncc4ccccc34)c1)oc1ccccc12` gave an IC50 of 1.87 µM. That is a single-digit micromolar value. In the case of `C[C@H](C(=O)O)C(=O)SCCNC(=O)CCNC(=O)[C@H](O)C(C)(C)COP(=O)(O)OP(=O)(O)OC[C@H]1O[C@@H](n2cnc3c(N)ncnc32)[C@H](O)[C@@H]1OP(=O)(O)O` (stereo in doubt), the IC50 was above 99 µM.

For `O=C1N(c2cncc3ccccc23)CCC12CN(S(=O)(=O)CC1CS(=O)(=O)C1)Cc1ccc(Cl)cc12` (stereo unspecified), the IC50 came to 0.353 µM. Take `Cc1nn(C)c2[nH]nc(NC(=O)Cc3cccc(Cl)c3)c12`: the IC50 is above 99.5 µM. Consider `N#Cc1nccc(Cl)n1`, for which the IC50 is above 99.5 µM. Take `CCS(=O)(=O)c1cc(Cl)cc(CNS(=O)(=O)c2cccs2)c1`: the IC50 is above 99.5 µM. For `N#CC1CN(S(=O)(=O)N2Cc3ccc(Cl)cc3C3(CCN(c4cncc5ccccc45)C3=O)C2)C1` (stereo unspecified), the half-inhibitory concentration (IC50) was 0.181 µM.

In turn, `O=C(Cc1cc(Cl)cc(Nc2ncc(C(F)(F)F)cc2Cl)c1)Nc1cncc2ccccc12` had an IC50 of 1.7 µM. For the molecule `O=C(Cc1cc(Cl)cc(NC23CC4CC(CC(O)(C4)C2)C3)c1)Nc1cncc2ccccc12`, the IC50 was 2.87 µM. This IC50 is about 1.7-fold higher than that of the molecule before.

Turning to `O=c1[nH]c(Cc2cccc(S(F)(F)(F)(F)F)c2)nc2cnccc12`, the IC50 was above 99.5 µM.

Take `O=C(Cc1cccc(Cl)c1)NC1CC(=O)c2ccccc21` (stereo unspecified): the IC50 amounted to 53.8 µM. Regarding `O=C(Cc1cc(Cl)cc(Nc2c(F)cc(F)cc2Cl)c1)Nc1cncc2ccccc12`, the IC50 is 2.06 µM.

`CC(C)(C)c1ccc(N(C(=O)c2cocn2)C(C(=O)NCCN2CCOCC2)c2cccnc2)cc1` (stereo unspecified): the IC50 was determined as 82.5 µM. `O=C(Nc1cncc2ccccc12)C1CCNc2cc(Cl)c(Cl)cc21` (stereo unspecified) returned an IC50 of 0.154 µM. This IC50 lies about 540-fold lower than the previous one. `CCc1ccc(S(C)(=O)=O)cc1C(=O)N1CCC(C2CCNC2)CC1` (stereo unspecified) had an IC50 above 99.5 µM. The molecule `O=C(Cc1cc(Cl)cc(Nc2ccccc2Sc2ccccc2)c1)Nc1cncc2ccccc12` displayed an IC50 of 2.47 µM. `COC1CC2(C1)CC(N(C(=O)c1cocn1)C(C(=O)NCCc1cccc(F)c1)c1cccnc1)C2` (stereo unspecified) had an IC50 above 99.5 µM. The molecule `C=CC(=O)NCc1ccc(C(=O)N[C@H](CO)c2ccc(Br)c(F)c2)cc1` (stereo in doubt) displayed a 50% inhibitory concentration (IC50) above 99.5 µM. With `O=C(Cc1cc(Cl)cc(Nc2ccc(C(F)(F)F)cc2)c1)Nc1cncc2ccccc12`, the IC50 was determined as 2.06 µM. `CC(C)(C)c1ccc(N(C(=O)c2nnn[nH]2)C(C(=O)NCCc2cccc(F)c2)c2cccnc2)cc1` (stereo unspecified): the IC50 was above 99.5 µM. As to `O=CNc1ccc(C(=O)NC(c2ccccc2)C2CCOCC2)cc1` (stereo unspecified), the IC50 is above 99.5 µM. `O=C(Cc1nnn2ccccc12)N(Cc1ccccc1)c1ccc(N2CCCCC2)cc1` yielded an IC50 above 99.5 µM. `CN(Cc1nc2ccccc2s1)C(=O)c1ccc2c(c1)nnn2C` had an IC50 above 99.5 µM. In the case of `NCc1cn(CC(=O)N(Cc2ccsc2)c2ccc(-n3cnnc3)cc2)nn1`, the IC50 was above 99.5 µM. For `C#CCCCC(=O)N[C@H](C(=O)N[C@H](CC(C)C)C(=O)NN(CCC(N)=O)C(=O)C1OC1C(=O)OCC)C(C)(C)C` (stereo in doubt) the value was 0.292 µM and 0.206 µM; for `C[C@]1(C(=O)Nc2cncc3c2CCCC3)CNS(=O)(=O)c2ccc(Cl)cc21` (stereo in doubt), 0.214 µM; for `N#Cc1cccc(NC(=O)Nc2c[nH]c3ncccc23)c1`, 63.6 µM. Molecule `CNC(=O)CN1Cc2ccc(Cl)cc2[C@]2(CCN(c3cncc4c3CCCC4)C2=O)C1` (stereo in doubt) showed an IC50 above 99.5 µM. As to `CS(=O)(=O)c1ccc2cncc(NC(=O)C3CNC(=O)c4c(F)cc(F)cc43)c2c1` (stereo unspecified), the IC50 was 3.6 µM. Under `CN(C)C(=O)CN1CC(C(=O)Nc2cncc3ccccc23)c2cc(Cl)ccc2C1=O` (stereo unspecified) stands 0.734 µM; under `COC1(CS(=O)(=O)N2Cc3ccc(Cl)cc3C3(CCN(c4cncc5ccccc45)C3=O)C2)CC1` (stereo unspecified), 0.356 µM; under `N#Cc1cnn(-c2ccc([N+](=O)[O-])cc2)c1Nc1cc(Cl)cc(CC(=O)Nc2cncc3ccccc23)c1`, 1.84 µM. Turning to `COc1cc(Nc2cc(Cl)cc(CC(=O)Nc3cncc4ccccc34)c2)c(Cl)cc1Cl`, the IC50 turned out to be 6.8 µM. Turning to `O=C(Cc1cc(Cl)cc(Oc2cccc(=O)[nH]2)c1)Nc1cncc2ccccc12`, the IC50 was 1.98 µM. In the case of `O=C(CCl)N1CCN(S(=O)(=O)c2ccsc2)CC1`, the IC50 was found to be 1.63 µM. `COC(=O)C(C)(CN(C(=O)c1ccco1)C(C(=O)NCCc1cccc(F)c1)c1cccnc1)c1ccccc1F` (stereo unspecified) showed an IC50 above 99.5 µM.

Regarding `Nc1nn(C(=O)Cc2cccc(Cl)c2)c2cc(F)ccc12`, the IC50 is above 99.5 µM. For `O=C(Nc1cncc2ccccc12)C1COCc2ccc(Cl)cc21` (stereo unspecified) the value was 8.08 µM; for `Cc1ccncc1NC(=O)Nc1cccc(Cl)c1`, 68 µM and 61 µM; for `Cc1ccncc1NC(=O)Cc1cc(Cl)cc(OCCN2CCOCC2C)c1` (stereo unspecified), above 99.5 µM. On to `CC(CNC(=O)c1cnc2ccccn12)Nc1nc2ccccc2o1` (stereo unspecified), for which the IC50 is above 99.5 µM. Molecule `CC(=O)N1CCc2ccc(Cl)cc2C1C(=O)Nc1cncc2ccccc12` (stereo unspecified) showed an IC50 of 2.85 µM. For `C=CC(=O)N(c1cc(C(C)(C)C)on1)C(C(=O)NCCc1cccc(F)c1)c1cncc(C#N)c1` (stereo unspecified) the value was above 99.5 µM.
